According to patent publication US10905781B2, “Reporter platform for real time monitoring of drug efficacy” (THE BRIGHAM AND WOMEN'S HOSPITAL, INC., priority 2016, dated 2021):
Ends that are not written are not given here.

System: effector caspases (caspase-3 and caspase-7) compared with initiator caspases (caspase-6 and caspase-9)
Assay: Activation of the NIR FRET reporter element by caspases
Assay type: biochemical
Conditions: caspase-3 and caspase-7 compared with caspase-6 and caspase-9
Procedure: FIG. 15A is a graph showing the time-dependent activation of the reporter element (with the NIR FRET pair) in the presence of caspase-3. Reporter element (50 μM) was incubated in the presence of 50 U caspase-3 enzyme at 37° C., which results in the cleavage of the DEVD sequence and removing the quenching effect of Dylight 766Q on the fluorophore Dylight 755. The increase in fluorescence over time was monitored.

reporter element: caspase-3 cleavable sequence GKDEVDAPC-CONH2 to which a NIR FRET-pair (Dylight 755 / Dylight 766Q) is conjugated (GKDEVDAPC-NH2; also: Dylight 755 / Dylight 766Q FRET pair conjugated)
activation of the NIR-based fluorophore by effector versus initiator caspases: selective activation
